Reference: the supplement of paper PMC10627819

Experiments:
B. subtilis 168 [1] = experiment: fitness (endpoint OD595 vs no drug) (fraction); higher = more growth
Summary of the method: (§1)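 Fitness was measured as bacterial growth in 384-well plates inoculated at OD595 0.01 (30 µl, or 55 µl for S. pneumoniae). Media were TSB, LB Lennox or CY, at 37 °C. OD595 was read every 30 min for 14 h and background-subtracted against the first reading. Fitness is OD595 at the transition into stationary phase divided by the robust mean of no-drug control wells, capped at 1.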

S. pneumoniae D39V [2] = experiment: as above
Summary of the method: as §1

B. subtilis 168 [3] = experiment: Bliss interaction score (quartile over a dose matrix) (fitness difference); higher = more antagonism (negative = synergy)
Summary of the method: (§2)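 The Bliss score subtracts expected fitness, the product of the single-drug fitness values, from observed fitness. Fitness is plate-normalised OD595 at entry into stationary phase, relative to the robust no-drug mean and capped at 1, with single-drug fitness inferred from combinations. Summaries are quartiles over technical, biological and donor/recipient replicates.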

S. aureus Newman = experiment: as above
Summary of the method: as §2

S. pneumoniae D39V [4] = experiment: as above
Summary of the method: as §2

S. aureus DSM 20231 = experiment: as above
Summary of the method: as §2
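For Bliss interaction score (quartile over a dose matrix) in this document: first quartile when negative (synergy) and third quartile when positive (antagonism).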

COc1cccc2c1C(=O)c1c(O)c3c(c(O)c1C2=O)C[C@@](O)(C(=O)CO)C[C@@H]3O[C@H]1C[C@H](N)[C@H](O)[C@H](C)O1 [Doxorubicin] + CCC(C)C1C(=O)NC(=C)C(=O)NC(C(=O)NC(CSCC(C(=O)N1)NC(=O)/C(=C/C)/NC(=O)C(C(C)CC)N)C(=O)NC2C(SCC(NC(=O)CNC(=O)C3CCCN3C2=O)C(=O)NC(CCCCN)C(=O)NC4C(SCC(NC(=O)CNC(=O)C(NC(=O)C(NC(=O)C(NC(=O)CNC4=O)C)CC(C)C)CCSC)C(=O)NC(CC(=O)N)C(=O)NC(CCSC)C(=O)NC(CCCCN)C(=O)NC5C(SCC6C(=O)NC(C(=O)NC(CSC(C(C(=O)N6)NC(=O)C(NC5=O)C)C)C(=O)NC(CO)C(=O)NC(C(C)CC)C(=O)NC(CC7=CN=CN7)C(=O)NC(C(C)C)C(=O)NC(=C)C(=O)NC(CCCCN)C(=O)O)CC8=CN=CN8)C)C)C)CC(C)C [Nisin]
main component drawn
Details	fitness
B. subtilis 168 [1], first compound 0.625 µg/mL, partner 0.5 µg/mL	0.882
B. subtilis 168 [1], first compound 0.625 µg/mL, partner 1 µg/mL	0.852
B. subtilis 168 [1], first compound 0.625 µg/mL, partner 2 µg/mL	0.459
B. subtilis 168 [1], first compound 1.25 µg/mL, partner 0.5 µg/mL	0.821
B. subtilis 168 [1], first compound 1.25 µg/mL, partner 1 µg/mL	0.83
B. subtilis 168 [1], first compound 1.25 µg/mL, partner 2 µg/mL	0.567
B. subtilis 168 [1], first compound 2.5 µg/mL, partner 0.5 µg/mL	0.688
B. subtilis 168 [1], first compound 2.5 µg/mL, partner 1 µg/mL	0.603
B. subtilis 168 [1], first compound 2.5 µg/mL, partner 2 µg/mL	0.19
S. pneumoniae D39V [2], first compound 0.25 µg/mL, partner 0.4275 µg/mL	0.998
S. pneumoniae D39V [2], first compound 0.25 µg/mL, partner 0.855 µg/mL	0.991
S. pneumoniae D39V [2], first compound 0.25 µg/mL, partner 1.6 µg/mL	0.0164
S. pneumoniae D39V [2], first compound 0.25 µg/mL, partner 1.71 µg/mL	0.0746
S. pneumoniae D39V [2], first compound 0.25 µg/mL, partner 3.2 µg/mL	0.0268
S. pneumoniae D39V [2], first compound 0.25 µg/mL, partner 6.4 µg/mL	0.0249
S. pneumoniae D39V [2], first compound 0.5 µg/mL, partner 0.4275 µg/mL	0.977
S. pneumoniae D39V [2], first compound 0.5 µg/mL, partner 0.855 µg/mL	0.91
S. pneumoniae D39V [2], first compound 0.5 µg/mL, partner 1.6 µg/mL	0.0215
S. pneumoniae D39V [2], first compound 0.5 µg/mL, partner 1.71 µg/mL	0.0797
S. pneumoniae D39V [2], first compound 0.5 µg/mL, partner 3.2 µg/mL	0.0424
S. pneumoniae D39V [2], first compound 0.5 µg/mL, partner 6.4 µg/mL	0.039
S. pneumoniae D39V [2], first compound 1 µg/mL, partner 0.4275 µg/mL	0.844
S. pneumoniae D39V [2], first compound 1 µg/mL, partner 1.6 µg/mL	0.0081
S. pneumoniae D39V [2], first compound 1 µg/mL, partner 1.71 µg/mL	0.065
S. pneumoniae D39V [2], first compound 1 µg/mL, partner 3.2 µg/mL	0.0126
S. pneumoniae D39V [2], first compound 1 µg/mL, partner 6.4 µg/mL	0.0281

fitness, B. subtilis 168 [1], one replicate, main component drawn
Details	partner 1.25 µg/mL	partner 1.6 µg/mL	partner 2.5 µg/mL	partner 3.2 µg/mL	partner 4 µg/mL	partner 5 µg/mL	partner 6.4 µg/mL	partner 8 µg/mL	partner 16 µg/mL
first compound 0.625 µg/mL	≥ 1	0.646	0.612	0.0265	0.0271	0.0205	0.0251	0.0074	0.0185
first compound 1.25 µg/mL	0.996	0.742	0.659	0.0085	0.0489	0.0315	0.0249	0.0463	0.0265
first compound 2.5 µg/mL	0.888	0.178	0.451	0.0274	0.0327	0.0219	0.0137	0.0311	0.0578

main component drawn
Details	Bliss interaction score
B. subtilis 168 [3]	0.0614
S. aureus DSM 20231	0.0625
S. aureus Newman	-0.0646
S. pneumoniae D39V [4]	-0.0536

O=C(O)c1cn(C2CC2)c2cc(N3CCNCC3)c(F)cc2c1=O [Ciprofloxacin] + CN(C)C(=O)C(CCN1CCC(O)(c2ccc(Cl)cc2)CC1)(c1ccccc1)c1ccccc1 [Loperamide]
Details	fitness
B. subtilis 168 [1], first compound 0.0098 µg/mL, partner 25 µg/mL	0.855
B. subtilis 168 [1], first compound 0.0195 µg/mL, partner 25 µg/mL	0.643
B. subtilis 168 [1], first compound 0.039 µg/mL, partner 25 µg/mL	0.038
B. subtilis 168 [1], first compound 0.039 µg/mL, partner 50 µg/mL	0.0608
B. subtilis 168 [1], first compound 0.039 µg/mL, partner 100 µg/mL	0.0402
S. pneumoniae D39V [2], first compound 0.125 µg/mL, partner 17.14 µg/mL	0.944
S. pneumoniae D39V [2], first compound 0.125 µg/mL, partner 20 µg/mL	≥ 1
S. pneumoniae D39V [2], first compound 0.125 µg/mL, partner 34.28 µg/mL	0.923
S. pneumoniae D39V [2], first compound 0.125 µg/mL, partner 40 µg/mL	≥ 1
S. pneumoniae D39V [2], first compound 0.25 µg/mL, partner 17.14 µg/mL	0.887
S. pneumoniae D39V [2], first compound 0.25 µg/mL, partner 34.28 µg/mL	0.886
S. pneumoniae D39V [2], first compound 0.5 µg/mL, partner 17.14 µg/mL	0.763
S. pneumoniae D39V [2], first compound 0.5 µg/mL, partner 20 µg/mL	0.883
S. pneumoniae D39V [2], first compound 0.5 µg/mL, partner 34.28 µg/mL	0.731
S. pneumoniae D39V [2], first compound 0.5 µg/mL, partner 40 µg/mL	0.865

fitness, S. pneumoniae D39V [2], one replicate
Details	partner 20 µg/mL	partner 40 µg/mL	partner 68.57 µg/mL	partner 80 µg/mL
first compound 0.125 µg/mL	–	–	0.952	–
first compound 0.25 µg/mL	0.994	≥ 1	0.964	0.531
first compound 0.5 µg/mL	–	–	0.886	–

Details	Bliss interaction score
B. subtilis 168 [3]	0.199
S. aureus DSM 20231	-0.258
S. aureus Newman	-0.0992
S. pneumoniae D39V [4]	0.109
